Experimental data: the supplement of paper PMC10307832

Legend:
Test in all cases: relative viability (nuclei count vs DMSO), 5 days (fraction); higher = more cells survive
ChaGo-K-1 = tested on: ChaGo-K-1
In short: (§1)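 After 5 days of treatment, lung cancer cells in 1536-well plates were fixed and stained in a single step (final 0.05% Triton X-100, 1% formaldehyde, 1 ug/ml Hoechst) and their nuclei counted on 4× images. Treatment had been applied by pin tool the day after seeding as one drug alone or as a fixed anchor-drug dose with five library-drug doses (not always all listed) in √10 steps. Relative viability is the nuclei count of treated wells divided by that of vehicle wells, and values are medians of duplicate plates.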

NCI-H2347 = tested on: NCI-H2347
In short: as §1

NCI-H650 = tested on: NCI-H650
In short: as §1

EPLC-272H = tested on: EPLC-272H
In short: as §1

RERF-LC-KJ = tested on: RERF-LC-KJ
In short: as §1

HOP-62 = tested on: HOP-62
In short: as §1

NCI-H1793 = tested on: NCI-H1793
In short: as §1

NCI-H1395 = tested on: NCI-H1395
In short: as §1

HCC-827 = tested on: HCC-827
In short: as §1

LOU-NH91 = tested on: LOU-NH91
In short: as §1

NCI-H322M = tested on: NCI-H322M
In short: as §1

SW 900 = tested on: SW 900
In short: as §1

NCI-H2170 = tested on: NCI-H2170
In short: as §1

NCI-H2228 = tested on: NCI-H2228
In short: as §1

NCI-H647 = tested on: NCI-H647
In short: as §1

NCI-H358 = tested on: NCI-H358
In short: as §1

NCI-H441 = tested on: NCI-H441
In short: as §1

NCI-H1755 = tested on: NCI-H1755
In short: as §1

PC-3 [JPC-3] = tested on: PC-3 [JPC-3]
In short: as §1

LXF-289 = tested on: LXF-289
In short: as §1

NCI-H596 = tested on: NCI-H596
In short: as §1

LCLC-103H = tested on: LCLC-103H
In short: as §1

NCI-H23 = tested on: NCI-H23
In short: as §1

NCI-H1651 = tested on: NCI-H1651
In short: as §1

NCI-H2126 = tested on: NCI-H2126
In short: as §1

Nc1cccc2c1CN(C1CCC(=O)NC1=O)C2=O (stereo not drawn) [Lenalidomide] + Nc1nc2[nH]cc(CCc3ccc(C(=O)N[C@@H](CCC(=O)O)C(=O)O)cc3)c2c(=O)[nH]1 [Pemetrexed] (partner 0.2 µM)
relative viability (ChaGo-K-1; first compound 0.253 µM): 0.256
relative viability (ChaGo-K-1; first compound 0.8 µM): 0.255
relative viability (ChaGo-K-1; first compound 2.53 µM): 0.274
relative viability (ChaGo-K-1; first compound 8 µM): 0.26
relative viability (NCI-H2347; first compound 0.253 µM): 0.405
relative viability (NCI-H2347; first compound 0.8 µM): 0.435
relative viability (NCI-H2347; first compound 2.53 µM): 0.415
relative viability (NCI-H2347; first compound 8 µM): 0.431
relative viability (NCI-H650; first compound 0.253 µM): 0.902
relative viability (NCI-H650; first compound 0.8 µM): 0.914
relative viability (NCI-H650; first compound 2.53 µM): 1.07
relative viability (NCI-H650; first compound 8 µM): 0.841
relative viability (EPLC-272H; first compound 0.253 µM): 0.328
relative viability (EPLC-272H; first compound 2.53 µM): 0.356
relative viability (EPLC-272H; first compound 8 µM): 0.359
relative viability (RERF-LC-KJ; first compound 0.253 µM): 0.542
relative viability (RERF-LC-KJ; first compound 0.8 µM): 0.412
relative viability (RERF-LC-KJ; first compound 2.53 µM): 0.503
relative viability (RERF-LC-KJ; first compound 8 µM): 0.503
relative viability (HOP-62; first compound 0.253 µM): 0.356
relative viability (HOP-62; first compound 0.8 µM): 0.376
relative viability (HOP-62; first compound 2.53 µM): 0.287
relative viability (HOP-62; first compound 8 µM): 0.381
relative viability (NCI-H1793; first compound 0.253 µM): 0.921
relative viability (NCI-H1793; first compound 2.53 µM): 1.15
relative viability (NCI-H1793; first compound 8 µM): 0.411
relative viability (NCI-H1395; first compound 0.253 µM): 0.875
relative viability (NCI-H1395; first compound 2.53 µM): 0.948
relative viability (NCI-H1395; first compound 8 µM): 0.874
relative viability (HCC-827; first compound 0.253 µM): 0.276
relative viability (HCC-827; first compound 0.8 µM): 0.269
relative viability (HCC-827; first compound 2.53 µM): 0.252
relative viability (HCC-827; first compound 8 µM): 0.304
relative viability (LOU-NH91; first compound 0.253 µM): 0.398
relative viability (LOU-NH91; first compound 0.8 µM): 0.361
relative viability (LOU-NH91; first compound 2.53 µM): 0.408
relative viability (LOU-NH91; first compound 8 µM): 0.406
relative viability (NCI-H322M; first compound 0.253 µM): 0.631
relative viability (NCI-H322M; first compound 0.8 µM): 0.635
relative viability (NCI-H322M; first compound 2.53 µM): 0.664
relative viability (NCI-H322M; first compound 8 µM): 0.697
relative viability (SW 900; first compound 2.53 µM): 0.509
relative viability (SW 900; first compound 8 µM): 0.477
relative viability (NCI-H2170; first compound 0.253 µM): 0.279
relative viability (NCI-H2170; first compound 0.8 µM): 0.282
relative viability (NCI-H2170; first compound 2.53 µM): 0.259
relative viability (NCI-H2170; first compound 8 µM): 0.27
relative viability (NCI-H2228; first compound 0.253 µM): 0.345
relative viability (NCI-H2228; first compound 0.8 µM): 0.345
relative viability (NCI-H2228; first compound 2.53 µM): 0.358
relative viability (NCI-H2228; first compound 8 µM): 0.358
relative viability (NCI-H647; first compound 0.253 µM): 0.173
relative viability (NCI-H647; first compound 0.8 µM): 0.164
relative viability (NCI-H647; first compound 2.53 µM): 0.178
relative viability (NCI-H647; first compound 8 µM): 0.182
relative viability (NCI-H358; first compound 0.8 µM): 0.197
relative viability (NCI-H358; first compound 2.53 µM): 0.182
relative viability (NCI-H358; first compound 8 µM): 0.179
relative viability (NCI-H441; first compound 0.253 µM): 0.27
relative viability (NCI-H441; first compound 0.8 µM): 0.273
relative viability (NCI-H441; first compound 2.53 µM): 0.268
relative viability (NCI-H441; first compound 8 µM): 0.242
relative viability (NCI-H1755; first compound 0.253 µM): 0.441
relative viability (NCI-H1755; first compound 0.8 µM): 0.452
relative viability (NCI-H1755; first compound 2.53 µM): 0.691
relative viability (NCI-H1755; first compound 8 µM): 0.448
relative viability (PC-3 [JPC-3]; first compound 0.253 µM): 1.2
relative viability (PC-3 [JPC-3]; first compound 0.8 µM): 0.755
relative viability (PC-3 [JPC-3]; first compound 2.53 µM): 1.21
relative viability (PC-3 [JPC-3]; first compound 8 µM): 1.08
relative viability (LXF-289; first compound 0.253 µM): 0.904
relative viability (LXF-289; first compound 0.8 µM): 1.13
relative viability (LXF-289; first compound 2.53 µM): 0.939
relative viability (LXF-289; first compound 8 µM): 1.06
relative viability (NCI-H596; first compound 0.253 µM): 0.519
relative viability (NCI-H596; first compound 0.8 µM): 0.4
relative viability (NCI-H596; first compound 2.53 µM): 0.538
relative viability (NCI-H596; first compound 8 µM): 0.48
relative viability (LCLC-103H; first compound 0.253 µM): 0.488
relative viability (LCLC-103H; first compound 0.8 µM): 0.476
relative viability (LCLC-103H; first compound 2.53 µM): 0.474
relative viability (LCLC-103H; first compound 8 µM): 0.458
relative viability (NCI-H23; first compound 0.253 µM): 0.589
relative viability (NCI-H23; first compound 2.53 µM): 0.861
relative viability (NCI-H23; first compound 8 µM): 0.694
relative viability (NCI-H1651; first compound 0.253 µM): 0.608
relative viability (NCI-H1651; first compound 0.8 µM): 0.497
relative viability (NCI-H1651; first compound 2.53 µM): 0.586
relative viability (NCI-H1651; first compound 8 µM): 0.582
relative viability (NCI-H2126; first compound 0.253 µM): 0.655
relative viability (NCI-H2126; first compound 0.8 µM): 0.679
relative viability (NCI-H2126; first compound 2.53 µM): 0.75
relative viability (NCI-H2126; first compound 8 µM): 0.634
